# Where two headings read alike, the source gives them in different places. 5‑FAM = 5-carboxyfluorescein (5-FAM) label at the N-terminus
# Legend:
# Format in all cases: biochemical
# Factor XIa [1] = target: T1, Factor XIa (Homo sapiens, UniProt P03951); assay: Factor XIa inhibition assay utilizing a fluorophore-quencher pair peptide substrate (FLINT, kinetic read); settings: peptide substrate cleaved by FXIa; fit to a substrate inhibition model
# human plasma kallikrein = human plasma kallikrein (Homo sapiens, UniProt P03952); assay: Kallikrein inhibition assay utilizing a quenched AMC peptide substrate (FLINT, kinetic read); settings: read-out: Kallikrein KIN Inh IC50
# Chain of human plasma kallikrein (P03952 391-638 limits assumed): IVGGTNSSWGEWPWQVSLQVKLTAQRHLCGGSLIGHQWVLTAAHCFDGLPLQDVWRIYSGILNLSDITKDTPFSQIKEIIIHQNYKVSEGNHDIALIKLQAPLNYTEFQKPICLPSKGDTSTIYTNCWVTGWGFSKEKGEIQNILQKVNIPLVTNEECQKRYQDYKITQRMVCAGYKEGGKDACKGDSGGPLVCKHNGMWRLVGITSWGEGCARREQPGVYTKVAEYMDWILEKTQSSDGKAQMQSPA
# Chain of human plasma kallikrein (P03952 20-390 partner limits assumed): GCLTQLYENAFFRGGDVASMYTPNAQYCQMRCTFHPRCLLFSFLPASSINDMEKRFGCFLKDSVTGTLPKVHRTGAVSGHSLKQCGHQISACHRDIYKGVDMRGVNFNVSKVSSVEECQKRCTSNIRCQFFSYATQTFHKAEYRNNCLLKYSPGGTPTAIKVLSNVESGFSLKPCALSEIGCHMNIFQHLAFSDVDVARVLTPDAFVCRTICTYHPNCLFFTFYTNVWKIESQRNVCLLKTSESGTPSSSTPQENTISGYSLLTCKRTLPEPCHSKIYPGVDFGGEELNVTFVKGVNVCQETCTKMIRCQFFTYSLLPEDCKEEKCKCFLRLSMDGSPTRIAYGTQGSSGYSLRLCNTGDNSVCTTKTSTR
# Factor XIa [2] = target: T1, Factor XIa; assay: Factor XIa inhibition assay utilizing a fluorophore-quencher pair peptide substrate (FLINT, kinetic read); settings: read-out: FXIa KIN Inh IC50
# From the text: Biological Example 1: Factor XIa Inhibition Assay Utilizing a Fluorophore-Quencher Pair Peptide Substrate A fluorescence intensity (FLINT) based assay was used to monitor inhibition of Factor XIa. The peptide substrate, 5Fam-[…]-K5Tamra (purchased from New England Peptide) was chosen based on the FXI sequence. Conversion of zymogen FXI to its activated form, FXIa, occurs by proteolytic cleavage by […] at two sites, Arg146 and Arg180. The custom peptide used in this assay was based on the Arg146 cleavage site of FXI. The peptide substrate was designed with a fluorophore-quencher pair, where the fluorescence is quenched until FXIa cleaves the 8-mer peptide after the Arg residue.
# The 2× Factor XIa stock solution was prepared by diluting 6.562 μM stock in 1× assay buffer for a […].
# Test compound(s) were run in an 11-point, 3-fold serial dilution with a final top compound concentration of 100 nM. Final DMSO in assay was 2%. FXIa was preincubated with compound for 30-minutes and then substrate was added to initiate the reaction. The assay was run with kinetic (KIN) reads at 5 min intervals over 30 minutes. […] More specifically, the assay was run as follows: • 100 nL of 0.01 mM test compound was dispensed into black 384-well non-binding Greiner BioOne 784900 plate for 0.1 μM final concentration; • 5 μL of 1× assay buffer was dispensed to column 24 (low control) and 5 μL 2× Factor XIa solution was dispensed to columns 1-23 (column 23 high control); • the plate was centrifuged with a “cover” plate at 500 rpm for 1 min • the plate was pre-incubated for 30 minutes at room temperature with plate covered; • 5 μL of 2× 5Fam-[…]-K5Tamra peptide substrate was dispensed into the entire plate, columns 1-24; • the plate was centrifuged with a “cover” plate at 500 rpm for 1 min; • the plate was read monitoring fluorescence intensity on the BMG PHERAStar at room temperature, using fluorescence module 485 nm/520 nm.
# Percent inhibition (IC50) curves were generated per compound tested, and data was analyzed using a 4-parameter logistic fit using GeneData Screener. The relative fluorescence unit (RFU) values were normalized to percent inhibition using the following equation:
# % inhibition=((HC−LC)−(compound−LC)/(HC−LC))*100 where LC—low control=mean signal of no Factor XIa or 100% inhibition of Factor XIa; HC—high control=mean signal of Factor XIa+5Fam-[…]-K5Tamra peptide substrate with DMSO only.
# An 11-point dose response curve for the test compound(s) was generated using GENDATA to determine IC50 value based on the following equation:
# Y=Bottom+(Top−Bottom)/(1+10^((log IC50−X)*HillSlope)) where Y is the % inhibition in the presence of X inhibitor concentration, Top=high control=mean signal of Factor XIa+5Fam-[…]-K5Tamra peptide substrate with DMSO only; Bottom=low control−mean signal of no Factor XIa or 100% inhibition of Factor XIa; HillSlope—Hill coefficient; and IC50=concentration of compound with 50% inhibition in relation to top/high control.
# T1 sequence (P03951 388-625 limits assumed): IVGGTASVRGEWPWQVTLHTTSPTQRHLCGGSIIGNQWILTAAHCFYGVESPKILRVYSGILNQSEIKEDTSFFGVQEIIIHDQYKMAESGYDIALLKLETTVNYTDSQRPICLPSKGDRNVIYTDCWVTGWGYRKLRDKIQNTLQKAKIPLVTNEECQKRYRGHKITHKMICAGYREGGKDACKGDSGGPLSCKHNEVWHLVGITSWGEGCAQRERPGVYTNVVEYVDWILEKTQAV
# T1 sequence (P03951 19-387 partner limits assumed): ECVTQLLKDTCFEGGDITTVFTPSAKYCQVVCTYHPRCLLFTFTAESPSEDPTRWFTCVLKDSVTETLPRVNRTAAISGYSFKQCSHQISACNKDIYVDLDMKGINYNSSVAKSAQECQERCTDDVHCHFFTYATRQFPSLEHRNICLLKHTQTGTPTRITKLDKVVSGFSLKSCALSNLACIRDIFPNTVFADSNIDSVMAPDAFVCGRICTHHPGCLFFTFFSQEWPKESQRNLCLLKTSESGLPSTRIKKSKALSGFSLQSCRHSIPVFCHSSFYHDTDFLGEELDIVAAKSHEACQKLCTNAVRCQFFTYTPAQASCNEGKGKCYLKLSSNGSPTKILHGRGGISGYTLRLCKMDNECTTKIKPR
Compound,IC50 (human plasma kallikrein; values given with μM) [µM],IC50 (Factor XIa [2]; values in nM) [nM],IC50 (human plasma kallikrein; values in nM) [µM],further results
"5Fam-KLTRAETV-K5Tamra ({5‑FAM}-KLTRAETVK-{5‑TAMRA}) [""The peptide substrate ... designed with a fluorophore-quencher pair"", ""based on the Arg146 cleavage site of FXI"", purchased from New England Peptide]",,,,Ki (Factor XIa [1]): 61600 nM; Km (Factor XIa [1]): 12.4 µM; kcat (Factor XIa [1]): 0.86 s⁻¹
"C[C@H]1C[C@@H](c2[nH]c(-c3ccc(N)nc3F)nc2F)n2c1cc(-c1c(-n3cnnn3)ccc(Cl)c1F)cc2=O (relative stereo) [Example 35, (1*S,3*S)-3-(2-(6-Amino-2-fluoropyridin-3-yl)-4-fluoro-1H-imidazol-5-yl)-7-(3-chloro-2-fluoro-6-(1H-tetrazol-1-yl)phenyl)-1-methyl-2,3-dihydroindolizin-5(1H)-one]",9.8,~610,,
"C[C@H]1C[C@H](c2ncc(-c3ccc(N)nc3Cl)[nH]2)n2c1cc(-c1c(-n3cnnn3)ccc(Cl)c1F)cc2=O (relative stereo) [Example 37, (1*S,3*R)-3-(5-(6-Amino-2-chloropyridin-3-yl)-1H-imidazol-2-yl)-7-(3-chloro-2-fluoro-6-(1H-tetrazol-1-yl)phenyl)-1-methyl-2,3-dihydroindolizin-5(1H)-one]",7.8,283,,
"C[C@H]1C[C@@H](c2ncc(-c3ccnc(CN)c3)[nH]2)n2c1cc(-c1c(-n3cnnn3)ccc(Cl)c1F)cc2=O (relative stereo) [Example 39, (1*S,3*S)-3-(5-(2-(Aminomethyl)pyridin-4-yl)-1H-imidazol-2-yl)-7-(3-chloro-2-fluoro-6-(1H-tetrazol-1-yl)phenyl)-1-methyl-2,3-dihydroindolizin-5(1H)-one]",,,,IC50 (Factor XIa [2]; values given with μM): 6600 nM
"Nc1ccc(-c2cnc([C@H]3CC4(CC4)c4cc(-c5cc(Cl)ccc5-n5cnnn5)cc(=O)n43)[nH]2)c(F)n1 (single isomer, unassigned) [Example 3]",,2.7,0.0392,

# Continued, in another order:
IC50 (human plasma kallikrein; values given with μM) [µM],IC50 (Factor XIa [2]; values in nM) [nM],IC50 (human plasma kallikrein; values in nM) [µM],Compound,further results
,9,0.296,"C[C@H]1C[C@@H](c2ncc(-c3ccnn3C)[nH]2)n2c1nc(-c1c(-n3cnnn3)ccc(Cl)c1F)cc2=O (relative stereo) [Example 146, (6*S,8*S)-2-(3-Chloro-2-fluoro-6-(1H-tetrazol-1-yl)phenyl)-8-methyl-6-(5-(1-methyl-1H-pyrazol-5-yl)-1H-imidazol-2-yl)-7,8-dihydropyrrolo[1,2-a]pyrimidin-4(6H)-one]",
,0.3,0.0235,"C[C@H]1C[C@@H](c2ncc(-c3ccc(N)nc3F)[nH]2)n2c1nc(-c1c(-n3cnnn3)ccc(Cl)c1F)cc2=O (relative stereo) [Example 149, (6*S,8*S)-6-(5-(6-Amino-2-fluoropyridin-3-yl)-1H-imidazol-2-yl)-2-(3-chloro-2-fluoro-6-(1H-tetrazol-1-yl)phenyl)-8-methyl-7,8-dihydropyrrolo[1,2-a]pyrimidin-4(6H)-one]",
2.3,92.1,,"CC1C[C@@H](c2ncc(-c3cnns3)[nH]2)n2c1nc(-c1c(-n3cnnn3)ccc(Cl)c1F)cc2=O (stereo in doubt) [Example 110, (6*S)-6-(5-(1,2,3-Thiadiazol-5-yl)-1H-imidazol-2-yl)-2-(3-chloro-2-fluoro-6-(1H-tetrazol-1-yl)phenyl)-8-methyl-7,8-dihydropyrrolo[1,2-a]pyrimidin-4(6H)-one]",

# Reference: patent publication US20230183233A1, “Bicyclic Pyridin-2-one and pyrimidin-4-one Derivatives Useful As a Factor XIa Inhibitors” (Janssen Pharmaceutica NV, priority 2021, published 2023)
